# How the values were obtained:
# [1] = tested on: DENV-R2A (Rluc-expressing DENV, serotype 2 strain 16681); test: microbe, parasite or virus in culture; format: cell-based, Dengue virus; settings: Dengue virus, Huh7.5, 48 h, read-out: DENV-R2A replication (fold DMSO) Mean, deconvolution screen, singletons, 50 µM, Huh7.5, 2 days postinfection
# [2] = tested on: ZIKV-R2A (strain FSS13025); test: microbe, parasite or virus in culture; format: cell-based; settings: Zika virus, Huh7.5, 48 h, read-out: ZIKV-R2A replication (fold DMSO) Mean
# [3] = tested on: Huh7.5 cells; test: Cell viability, CellTiter-Glo luminescent assay; settings: deconvolution screen, singletons, 50 µM, uninfected Huh7.5
SMILES,activity at 50 µM [1] [%],activity at 50 µM [2] [%],Cell viability (fold DMSO) Mean [3] [fold DMSO]
"CC(=O)Nc1cc(C)ccc1F [MS-0037, CC(=O)Nc1cc(C)ccc1F]",103,114,1.28
"O=C(O)[C@@H](O)c1ccc(Br)cc1 [SS-4660, O[C@H](C(=O)O)c1ccc(Br)cc1]",104,102,1.10
"Cc1ncccc1C(=O)O [PS-5559, Cc1ncccc1C(=O)O]",102,104,0.92
"C[C@@H](O)c1cccc(C(F)(F)F)c1 [PS-6325, C[C@@H](O)c1cccc(c1)C(F)(F)F]",103,108,1.07
"CCN1C(=O)CCCc2ccccc21 [Compound 11N-585S, CCN1C(=O)CCCc2ccccc12]",102,97,0.93
"OCc1c[nH]c(-c2ccccc2)n1 [CB-0713, OCc1c[nH]c(n1)c2ccccc2]",92,100,1.02
"OC[C@@H]1Cc2ccccc2CN1 [PS-6029, OC[C@@H]1Cc2ccccc2CN1]",99,114,0.97
"c1ccn(-c2cnccn2)c1 [Compound 6N-039, c1ccn(c1)c2cnccn2]",95,99,0.93
"Fc1cc(F)cc(-c2ccno2)c1 [PS-6845, Fc1cc(F)cc(c1)c2oncc2]",100,111,1.15
"Clc1ccc(N2CCNCC2)nc1 [AS-5607, Clc1ccc(nc1)N2CCNCC2]",76,81,1.13
"O=C(O)Cc1ccc(O)cc1 [PS-5568, OC(=O)Cc1ccc(O)cc1]",97,103,0.98
"Nc1ccccc1N1CCCCC1 [PS-4134, Nc1ccccc1N2CCCCC2]",111,107,1.12
"Cc1cc(C)n2ccnc2c1 [Compound 9X-0854, Cc1cc(C)n2ccnc2c1]",94,98,1.21
"CC(=O)c1ccccc1-n1ccnc1 [Compound 1B-028, CC(=O)c1ccccc1n2ccnc2]",59,58,0.78
"Cc1cc(O)cc(C)c1CO [DK-0713, Cc1cc(O)cc(C)c1CO]",96,93,1.04
"Cn1cc(Br)c2c(N)ncnc21 [EK-0205, Cn1cc(Br)c2c(N)ncnc12]",51,63,0.87
"COc1ccc(CO)c(OC)c1 [PS-4550, COc1ccc(CO)c(OC)c1]",31,34,0.92
"O=C1CCC(c2ccccc2)=NN1 [Compound 7L-571S, O=C1CCC(=NN1)c2ccccc2]",107,124,0.99
"CC(=O)c1ccc2cc(O)ccc2c1 [Compound 8X-0242, CC(=O)c1ccc2cc(O)ccc2c1]",86,81,1.00
"CSc1ccccc1N1CCNCC1 [SS-4074, CSc1ccccc1N2CCNCC2]",79,100,0.92
"COc1ncc(Cl)cc1C#N [PS-5618, COc1ncc(Cl)cc1C#N]",108,97,1.05
"Cc1onc(-c2ccccc2)c1N [PS-4715, Cc1onc(c1N)c2ccccc2]",88,113,1.05
"Clc1ncc(Cn2ccnc2)s1 [Compound 8P-013, Clc1ncc(Cn2ccnc2)s1]",104,118,0.94
"O=C(O)c1ccc(N2CCCCC2)nn1 [PS-5724, OC(=O)c1ccc(nn1)N2CCCCC2]",107,106,1.01
"Clc1ccc2nccnc2c1 [PS-3410, Clc1ccc2nccnc2c1]",95,108,1.20
"Nc1ccc(Cl)cc1Br [PS-3798, Nc1ccc(Cl)cc1Br]",94,111,0.99
"Nc1oncc1-c1ccc(Cl)cc1 [FS-2048, Nc1oncc1c2ccc(Cl)cc2]",57,61,0.90

SMILES,activity at 50 µM [1] [%],activity at 50 µM [2] [%],Cell viability (fold DMSO) Mean [3] [fold DMSO]
"Cc1ccc(N2CCNC2=O)c(C)c1 [FA-0890, Cc1ccc(N2CCNC2=O)c(C)c1]",99,112,1.08
"COc1ccccc1N1CCNC(C)C1 (stereo not drawn) [SS-2433, COc1ccccc1N2CCNC(C)C2]",82,94,1.09
"Cc1ccc(C2CNCCN2)cc1 (stereo not drawn) [FS-3294, Cc1ccc(cc1)C2CNCCN2]",74,96,1.08
"Nc1cnccc1Cl [PS-6061, Nc1cnccc1Cl]",102,102,1.04
"NC(=O)C1CCCNC1 (stereo not drawn) [PS-3699, NC(=O)C1CCCNC1]",95,113,0.94
"CC1(C)CC(O)CC(C)(C)N1 [PS-5856, CC1(C)CC(O)CC(C)(C)N1]",97,110,1.06
"Clc1[nH]ccc2nccc1-2 [PS-4776, Clc1[nH]ccc2nccc12]",84,100,1.13
"COc1ccc2cc[nH]c2n1 [SS-4327, COc1ccc2cc[nH]c2n1]",98,108,1.01
"O=C(C1CCNCC1)N1CCCC1 [PS-4906, O=C(C1CCNCC1)N2CCCC2]",97,117,0.90
"N[C@H]1CC[C@H](O)CC1 [PS-5466, N[C@@H]1CC[C@@H](O)CC1]",96,115,0.99
"Cc1ccc(Br)c(N)c1 [PS-5668, Cc1ccc(Br)c(N)c1]",102,101,1.16
"Cc1cc(O)nc2ccc(O)cc12 [PS-4921, Cc1cc(O)nc2ccc(O)cc12]",92,83,1.00
"Nc1cccc(Cl)c1 [PS-5280, Nc1cccc(Cl)c1]",111,116,0.98
"Nc1cccc(Cl)c1Cl [PS-4077, Nc1cccc(Cl)c1Cl]",96,120,0.97
"OCC1(c2ccc(Cl)cc2)CC1 [RS-1014, OCC1(CC1)c2ccc(Cl)cc2]",84,93,1.07
"N#CCC(=O)Nc1ccccc1 [Compound 9B-046, O=C(CC#N)Nc1ccccc1]",96,104,1.17
"Cc1cc(O)cc(O)n1 [PS-3153, Cc1cc(O)cc(O)n1]",100,109,0.97
"Cc1cnn2c(C3CC3)ccnc12 [Compound 7T-0305, Cc1cnn2c(ccnc12)C3CC3]",108,111,1.06
"COC(=O)c1cc(Br)no1 [PS-3994, COC(=O)c1onc(Br)c1]",98,114,1.07
"N#Cc1cccc(O)c1 [PS-5804, Oc1cccc(c1)C#N]",102,115,1.16
"CC(=O)Nc1ccc(OC(F)F)cc1 [PS-6506, CC(=O)Nc1ccc(OC(F)F)cc1]",105,110,1.10
"OCc1cccc(CO)n1 [PS-5751, OCc1cccc(CO)n1]",100,113,0.90
"CCCC(=O)c1cccs1 [FS-1782, CCCC(=O)c1cccs1]",104,104,1.02
"CC1(C)CN2C(=O)c3ccccc3C2S1 (stereo not drawn) [Compound 12R-0242, CC1(C)CN2C(S1)c3ccccc3C2=O]",62,74,0.81
"OCc1cc2cc(Br)ccc2[nH]1 [GA-0936, OCc1cc2cc(Br)ccc2[nH]1]",13,63,0.83
"CCNC(=O)N1CCC(O)CC1 [SS-4002, CCNC(=O)N1CCC(O)CC1]",103,98,1.05

# — article PMC9933715 (Antimicrobial Agents and Chemotherapy, 2023)
